Experimental data as given in patent US20250127168A1, “METHOD FOR PATHOGENS, MICROORGANISMS, AND PARASITES INACTIVATION” (New York Blood Center, Inc., priority 2018, published 2025).

How the values were obtained:
[1] = Neutralization of compound VI by sodium thiosulfate (LCMS); format: physicochemical; conditions: for first-order rate constant of reaction with Na2S2O3: Compound VI 100 μM, 1 mM Na2S2O3 in PBS
Experimental: The rate of reaction of Compound VI, 100 μM with 1 mM Na2S2O3 in PBS was determined by LCMS analysis of the reaction mixture (FIG. 19). […] LCMS analysis of the reaction product confirmed that it was the bisthiosulfate ester (compound XXIII formed by reacting of compound VI with two molecules of Na2S2O3.

Cytochrome C = Cytochrome C (Equus caballus, UniProt P00004); assay: Reactivity with Cytochrome C (electrospray MS); format: biochemical; conditions: 8 μM protein; 0.1, 1, 10 mM compound; pH 7.0, 40° C.; 1, 4 and 30 h
Sequence of Cytochrome C (P00004 whole entry): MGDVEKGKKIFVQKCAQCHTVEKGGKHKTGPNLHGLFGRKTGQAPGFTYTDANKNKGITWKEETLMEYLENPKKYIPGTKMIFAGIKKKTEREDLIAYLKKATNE
From the text: Using alkylating molecules to inactivate pathogens in blood product has potentially harmful side effect—their reaction with proteins may create neoantigens, i.e., they may become haptens. To assess the hapten potential of the compounds of Structure I, their ability to modify Cytochrome C was studied. Cytochrome C (MW of 12384 Da) was selected as a model protein because it contains a number of amino acids with nucleophilic side chains: 19 Lys, 2 Cys, 3 Asp, 9 Glu, 3 His, and 4 Tyr, which are potential targets for alkylation by the compounds of Structure I. Cytochrome C, 0.1 mg/mL (8 μM) solution in phosphate buffered saline was incubated with 0 (control), 0.1, 1, and 10 mM of compounds VI or X at pH 7.0 for 30 h at 40° C. Aliquots of the incubation mixtures were analyzed at 1, 4 and 30 h by electrospray mass spectrometry in the positive ionization mode with direct infusion into a LCQ Advantage mass spectrometer (Thermo-Finnigan, San Jose, CA) for the formation of covalent adducts of the protein with the test compounds.

porcine parvovirus (PPV) = assay: Viral inactivation in RS, endpoint dilution assay; format: cell-based; conditions: 100 μM, RT
Experimental: (§1) The porcine parvovirus (PPV) was inactivated by using compound VI and compound X. Treatments were conducted in RS (pH 6.9) at RT with 100 μM using compound VI and compound X and 10% virus spike. Residual compounds were quenched by incubation with 10 mM Na2S2O3 for 2 hours at RT. Virus titers, expressed as Log10TCID50/mL, were determined using the standard endpoint dilution assay with permissive to PPV porcine testis cells. After the incubation of indicator cells for 6 days, infected wells were counted under microscope by visual inspection. To confirm the results, secondary infection using conditioned media from the first plate wells as samples was conducted.

[2] = tested on: Bovine viral diarrhea virus (BVDV); assay: Viral inactivation in RS, endpoint dilution assay; format: cell-based; conditions: 100 μM, RT
Experimental: as §1
Bovine viral diarrhea virus (BVDV) was inactivated by using compound VI and compound X. The protocol used for […] except the indicator cells, which were bovine turbinate cells.

[3] = tested on: whole blood or red blood cells concentrate; assay: Quality of treated whole blood and red blood cells concentrate (complete blood count and biochemistry); conditions: 500 μM for 6 hours at RT, neutralized with sodium thiosulfate; storage at 4-6° C., weekly testing
Experimental: Ten mL samples of whole blood or red blood cells concentrate (RBCC, 25 mL) were treated with 500 μM compound VI for 6 hours at RT. The residual compound VI was neutralized by the same volume of 10 mM sodium thiosulfate for 2 hours at RT. For controls, identical samples of whole blood or RBCC were treated with saline and sodium thiosulfate without compound VI or with saline only without compound VI and/or thiosulfate. Aliquots of whole blood and RBCC from each sample were subjected to complete blood count and biochemistry analysis using IDEXX Procyte Dx Hematology Analyzer and IDEXX Catalyst Dx Chemistry Analyzer according to manufacturer recommendations. The samples were analyzed immediately after the treatment and re-analyzed after one week for whole blood and every week for 5 weeks of storage at 4-6° C. for RBCC. The following parameters were measured: RBC number, hemoglobin, hematocrit, mean corpuscular volume, mean corpuscular hemoglobin, red cell distribution, reticulocyte count, platelets, mean platelet volume, white blood cells, neutrophils, lymphocytes, monocytes, eosinophils, basophils, chloride, potassium, sodium, glucose, and lactate concentrations.

[4] = Neutralization of compound X with methyl thiosalicylate (LCMS); format: physicochemical; conditions: 100 μM compound X, 10 mM methyl thiosalicylate, PBS
Experimental: The rate of neutralization of […] can be determined by plotting of logarithm of compound X concentration, determined by its peak area against the time of incubation.

[5] = Neutralization of compound X with glutathione; conditions: in presence of glutathione, same conditions

Structure (SMILES)	residual compound VI concentration ([1]; 10 mM Na2S2O3, 25° C., after 2 h, extrapolated)	first-order rate constant of reaction with Na2S2O3 ([1]; 6° C.)	first-order rate constant of reaction with Na2S2O3 ([1]; 25° C.)	half-live of compound VI ([1]; in 10 mM Na2S2O3 and 25° C., extrapolated from rate)	covalent adducts with cytochrome C (Cytochrome C)	PPV titer (porcine parvovirus (PPV); RS pH 6.9, incubation 1 h)	PPV titer (porcine parvovirus (PPV); RS pH 6.9, incubation 3 h)	PPV titer (porcine parvovirus (PPV); RS pH 6.9, incubation 6 h)	BVDV titer ([2]; incubation 1 h)	BVDV titer ([2]; incubation 3 h)	BVDV titer ([2]; incubation 6 h)	cellular or biochemical characteristics of treated blood versus controls [3]	compound X half-life T1/2 [4]	half-life of compound X [5]
CN(CCCCN(C)CCCN1CC1)CCCN1CC1 [Compound VI, N^1,N^4-bis(3-(aziridin-1-yl)propyl)-N^1,N^4-dimethylbutane-1,4-diamine]	5.5e-07 pM	0.00614 min⁻¹	0.0379 min⁻¹	1.83 min	absence of covalent adducts	2.95 Log10TCID50/mL	0.85 Log10TCID50/mL	below the limit of detection and BLD	3.27 Log10TCID50/mL	1.30 Log10TCID50/mL	below the limit of detection and BLD	No differences in cellular or biochemical characteristics	–	–
CN(CCCCN(C)CCCN1CC1)CCCN(C)CCCN1CC1 [Compound X]	–	–	–	–	absence of covalent adducts	3.09 Log10TCID50/mL	2.72 Log10TCID50/mL	0.78 Log10TCID50/mL	3.88 Log10TCID50/mL	2.94 Log10TCID50/mL	0.84 Log10TCID50/mL	–	0.277 h	7.5 h
